Experiments:
[1] = system: stroke injury, preclinical models; details: 150 mg/kg of free monosialoganglioside in saline; cited from earlier work
HO-1, NQO1 and SOD1 = test: Gene (qPCR) and protein expression of antioxidant enzymes in endothelial cells; assay type: cell-based, human; details: medin 5 μM, 20 hours
Experimental: (§1) Methods. Recombinant medin was expressed in Lemo 21 (DE3) cells using POPINS-medin (Karamanova N, et al. J Am Heart Assoc 2020; 9:e014810) and confirmed to have >95% purity by SDS-PAGE. GM1L was prepared from phosphatidylcholine, cholesterol and monosialoganglioside (molar ratios 70:25:5) using lipid hydration method (Karamanova N, et al. J Am Heart Assoc 2020; 9:e014810). Primary human brain microvascular ECs (Lonza, passages 4-8) were exposed for 20 hours to 4 different treatments (vehicle control, medin 5 μM, medin 5 μM+GM1L 300 μg/ml or GM1L 300 μg/ml) under two aerobic conditions: physoxia (5% oxygen) or hypoxia (1% oxygen). Cell viability was assessed using calcein-AM fluorescence (based on principle of intact esterases in viable cells that releases fluorescent calcein) using flow cytometry (measurements expressed relative to control ECs exposed to room air). Gene expression of antioxidant enzymes heme-oxygenase 1 (HO1), NADPH quinone dehydrogenase (NQO1) and superoxide dismutase 1 (SOD1) were measured separately by qPCR on ECs.
Nrf2 is a transcription factor that is a master regulator of production of antioxidant enzymes and protective mechanisms against hypoxic/ischemic stress and inflammatory stress.

[2] = system: human brain microvascular endothelial cells (HBMVECs); test: Viability of human brain microvascular endothelial cells under physoxia/hypoxia, with or without medin (calcein-AM, flow cytometry); assay type: cell-based; details: medin 5 μM, 20 hours; for cell viability under hypoxic condition: hypoxia (1% oxygen)
Experimental: as §1
Cell viability was assessed using calcein-AM fluorescence using flow cytometry. Measurements are expressed relative to control HBMVECs exposed to room air.

| Substance | reduction in infarct volume, prior study [1] [%] | antioxidant enzyme gene expression versus control (HO-1, NQO1 and SOD1) | cell viability under hypoxic condition [2] | cell viability under hypoxic condition ([2]; listed as Medin) | cell viability under physoxic condition ([2]; physoxia (5% oxygen)) |
| --- | --- | --- | --- | --- | --- |
| monosialoganglioside | 6.8 | – | – | – | – |
| medin: 50-amino acid amyloidogenic peptide; recombinant, expressed in Lemo 21 (DE3) cells (RLDKQGNFNAWVAGSYGNDQWLQVDLGSSKEVTGIITQGARNFGSVQFVA; Medin; UniProt Q08431 268-317, looked up) | – | did not elicit a change | more so | significant additive adverse effect | reduced viability |
